Measurements reported in patent US11786492B2, “Therapeutic agent for phosphodiesterase inhibition and its related disorders” (Novalead Pharma Inc, priority 2017, dated 2023).

How the values were obtained:
[1] = test system: TNF-α; assay: TNF-α release from stimulated HaCaT cells, ELISA; type: cell-based, human; conditions: IFN-γ 50 ng/mL, 48 hrs
Method: (§1) HaCaT cells were maintained in T-75 cm2 flask in Dulbecco's modified Eagle medium supplemented with FBS (10%), L-glutamine (2 mM), penicillin (100 ug/ml), streptomycin (100 ug/ml) at 37° C. in 5% CO2 incubator. Cell growth was maintained to 70-80% confluence for seeding and vehicle used was 1% DMSO. The cell viability was checked at various time points using Alamar blue and fluorescence readings were taken at excitation of 544 nm and emission of 590 nm.
(§2) HaCaT cells were stimulated with different stimulators as follows: • a. Cells were exposed to stimulator LPS at 1 μg/mL for 48 hrs to stimulate IL-1β • b. Cells were exposed to stimulator IFN-γ at 50 ng/mL for 48 hrs to stimulate TNF-α, IL-6
(§3) After 48 hrs supernatants were collected and centrifuged to remove any cell debris and aliquots were used for ELISA.

[2] = biological target: PDE4A (Homo sapiens, UniProt P27815); assay: Fluorescence polarization assay PDE4A; type: biochemical; conditions: substrate cAMP
Method: (§4) An experiment to check inhibition of various subtypes of the target Phosphodiesterase (PDE) enzyme in in-vitro assay was performed. […] PDE1A, PDE2A, PDE4A, PDE4B, PDE4C, PDE4D, PDE5A, PDE7A, PDE9A, PDE10A.

[3] = biological target: PDE10A (Homo sapiens, UniProt Q9Y233); assay: Fluorescence polarization assay PDE10A; type: biochemical; conditions: substrate cAMP
Chain of PDE10A (Q9Y233 whole entry, species assumed): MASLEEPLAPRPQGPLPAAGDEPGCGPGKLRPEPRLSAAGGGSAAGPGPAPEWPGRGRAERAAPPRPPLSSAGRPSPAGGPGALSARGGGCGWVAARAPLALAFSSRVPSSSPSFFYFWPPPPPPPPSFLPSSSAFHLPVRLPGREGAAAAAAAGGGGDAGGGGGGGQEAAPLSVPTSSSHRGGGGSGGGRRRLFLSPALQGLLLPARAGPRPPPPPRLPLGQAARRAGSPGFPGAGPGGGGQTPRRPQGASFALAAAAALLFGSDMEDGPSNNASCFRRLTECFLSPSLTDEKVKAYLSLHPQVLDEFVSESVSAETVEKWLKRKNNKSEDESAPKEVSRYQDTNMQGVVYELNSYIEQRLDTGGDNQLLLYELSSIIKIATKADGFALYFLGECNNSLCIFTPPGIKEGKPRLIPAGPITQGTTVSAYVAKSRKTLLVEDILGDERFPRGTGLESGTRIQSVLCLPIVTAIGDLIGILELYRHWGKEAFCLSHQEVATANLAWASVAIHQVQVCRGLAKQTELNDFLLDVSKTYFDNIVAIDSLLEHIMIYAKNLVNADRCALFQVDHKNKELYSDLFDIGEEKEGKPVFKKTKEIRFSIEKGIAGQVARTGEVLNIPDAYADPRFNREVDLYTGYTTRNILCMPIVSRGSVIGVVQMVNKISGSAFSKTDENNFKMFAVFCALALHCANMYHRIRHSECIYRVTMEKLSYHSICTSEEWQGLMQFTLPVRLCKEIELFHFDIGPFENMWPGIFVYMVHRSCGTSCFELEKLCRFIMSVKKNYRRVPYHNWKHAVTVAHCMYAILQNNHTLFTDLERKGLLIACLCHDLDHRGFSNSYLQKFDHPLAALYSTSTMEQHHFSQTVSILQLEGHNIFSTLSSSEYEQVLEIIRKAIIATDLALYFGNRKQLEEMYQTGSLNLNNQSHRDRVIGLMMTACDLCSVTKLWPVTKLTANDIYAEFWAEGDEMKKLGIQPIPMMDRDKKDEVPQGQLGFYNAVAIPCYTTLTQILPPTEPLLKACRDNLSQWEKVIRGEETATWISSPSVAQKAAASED
Method: as §4

[4] = test system: IL-6; assay: IL-6 release from stimulated HaCaT cells, ELISA; type: cell-based, human; conditions: for IL-6 Conc.: IFN-γ 50 ng/mL, 48 hrs
Method: as §1, §2, §3

[5] = biological target: PDE1A (Homo sapiens, UniProt P54750); assay: Fluorescence polarization assay PDE1A; type: biochemical; conditions: substrate cGMP, Ca-CaM
Chain of PDE1A (P54750 whole entry, species assumed): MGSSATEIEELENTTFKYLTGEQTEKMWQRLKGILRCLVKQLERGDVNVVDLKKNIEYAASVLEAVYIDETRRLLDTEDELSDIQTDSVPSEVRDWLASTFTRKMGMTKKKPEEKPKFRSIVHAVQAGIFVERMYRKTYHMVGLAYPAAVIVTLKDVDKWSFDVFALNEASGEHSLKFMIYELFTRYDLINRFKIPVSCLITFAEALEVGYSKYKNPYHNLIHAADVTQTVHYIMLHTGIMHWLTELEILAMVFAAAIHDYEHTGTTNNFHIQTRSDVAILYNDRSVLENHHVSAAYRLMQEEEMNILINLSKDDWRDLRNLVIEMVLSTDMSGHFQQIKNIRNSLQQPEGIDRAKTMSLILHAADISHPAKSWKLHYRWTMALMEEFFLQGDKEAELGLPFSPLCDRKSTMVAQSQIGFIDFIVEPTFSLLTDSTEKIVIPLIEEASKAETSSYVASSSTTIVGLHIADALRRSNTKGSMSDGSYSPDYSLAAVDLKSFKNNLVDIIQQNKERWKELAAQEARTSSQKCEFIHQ
Method: as §4

[6] = biological target: T1, PDE5 (Human platelets) (Homo sapiens, UniProt O76074); assay: Radiolabeled enzyme assay PDE5; type: biochemical; conditions: read-out: % inhibition at 30 μM, 1.01 μM [3H]cGMP+cGMP
T1 construct: PDE5 (Human platelets); from tissue; host or cells: human platelets
Method: (§5) Enzyme assays have been optimized for incubation time, substrate concentration and method of end-product determination.

[7] = test system: HaCaT cells; assay: Cell viability of HaCaT cells, Alamar blue; type: cell-based, human
Method: as §1

[8] = biological target: PDE2A (Homo sapiens, UniProt O00408); assay: Fluorescence polarization assay PDE2A; type: biochemical; conditions: substrate cGMP
Chain of PDE2A (O00408 whole entry, species assumed): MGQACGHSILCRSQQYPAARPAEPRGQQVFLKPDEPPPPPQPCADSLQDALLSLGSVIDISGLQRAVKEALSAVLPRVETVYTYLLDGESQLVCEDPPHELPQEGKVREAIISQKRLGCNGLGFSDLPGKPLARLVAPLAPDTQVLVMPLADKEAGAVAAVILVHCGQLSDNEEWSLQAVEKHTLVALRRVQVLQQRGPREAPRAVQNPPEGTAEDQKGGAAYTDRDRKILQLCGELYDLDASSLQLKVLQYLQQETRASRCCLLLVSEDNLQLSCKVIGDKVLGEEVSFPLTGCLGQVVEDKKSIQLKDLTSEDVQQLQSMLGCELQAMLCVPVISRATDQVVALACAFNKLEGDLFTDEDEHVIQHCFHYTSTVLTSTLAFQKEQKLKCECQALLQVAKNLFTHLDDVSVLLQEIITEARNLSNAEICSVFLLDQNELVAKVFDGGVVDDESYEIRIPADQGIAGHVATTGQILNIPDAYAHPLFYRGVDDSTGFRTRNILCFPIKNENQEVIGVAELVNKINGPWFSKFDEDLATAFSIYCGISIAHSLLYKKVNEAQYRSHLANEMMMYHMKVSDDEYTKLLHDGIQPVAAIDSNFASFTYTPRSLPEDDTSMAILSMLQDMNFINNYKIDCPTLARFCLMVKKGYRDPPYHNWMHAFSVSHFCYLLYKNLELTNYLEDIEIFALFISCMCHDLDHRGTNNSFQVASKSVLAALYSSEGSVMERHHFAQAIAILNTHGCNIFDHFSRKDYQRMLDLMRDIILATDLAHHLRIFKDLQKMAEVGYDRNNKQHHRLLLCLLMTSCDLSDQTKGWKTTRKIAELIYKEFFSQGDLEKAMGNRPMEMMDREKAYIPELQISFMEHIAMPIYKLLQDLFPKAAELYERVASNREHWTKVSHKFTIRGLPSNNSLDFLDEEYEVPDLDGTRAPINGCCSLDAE
Method: as §4

[9] = biological target: PDE9A (Homo sapiens, UniProt O76083); assay: Fluorescence polarization assay PDE9A; type: biochemical; conditions: substrate cGMP
Chain of PDE9A (O76083 whole entry, species assumed): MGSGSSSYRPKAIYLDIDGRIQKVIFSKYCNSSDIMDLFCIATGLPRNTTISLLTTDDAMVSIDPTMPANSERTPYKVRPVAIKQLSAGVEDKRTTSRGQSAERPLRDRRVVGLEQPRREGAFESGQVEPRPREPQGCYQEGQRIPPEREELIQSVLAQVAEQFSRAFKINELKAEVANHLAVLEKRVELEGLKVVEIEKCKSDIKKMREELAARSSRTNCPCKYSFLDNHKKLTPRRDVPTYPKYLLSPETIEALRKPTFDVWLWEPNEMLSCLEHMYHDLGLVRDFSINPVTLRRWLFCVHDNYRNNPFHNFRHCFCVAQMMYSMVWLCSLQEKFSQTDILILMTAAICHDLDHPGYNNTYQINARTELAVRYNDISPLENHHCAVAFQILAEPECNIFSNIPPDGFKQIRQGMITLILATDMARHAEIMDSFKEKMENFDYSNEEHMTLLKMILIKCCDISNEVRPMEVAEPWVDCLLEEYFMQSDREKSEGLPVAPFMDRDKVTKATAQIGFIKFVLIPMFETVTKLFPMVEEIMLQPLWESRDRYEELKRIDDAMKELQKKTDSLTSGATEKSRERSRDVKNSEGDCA
Method: as §4

[10] = test system: Imiquimod induced psoriasis in BALB/c mice; assay: Imiquimod induced psoriasis model in Balb/c mice; conditions: for % inhibition of Ear inflamn. / Histopathology Scores Epidermal Thickness / Histopathology Scores Hyperkeratosis / Histopathology Scores Rete Peg Prolifern. / PASI score / Spleen weight / IL23 Levels: twice daily; for IL23 Levels: ear tissue lysate
Method: BALB/c mice (Sex: Female, Age: 7-8 Weeks) were used for induction of psoriasis using IMQ. Topical application of imiquimod (IMQ) in mice can induce and exacerbate psoriasis closely resembling human psoriasis. […] 3%, 4% and 5% and positive control of Tenovate (Clobetasol) 0.05% cream. In all 63 mg cream containing 5% of IMQ was applied to dorsal area (shaved back) and right ear for 8 days. Topical formulations from Example 7 were used during this experiment.
The parameters investigated were ear thickness change, % inhibition of ear inflammation, Psoriatic Area Severity Index (PASI). Histopathology was performed of right ear and dorsal skin by H & E staining. The biomarker in this study was inflammatory cytokine IL-23 analyzed by ELISA obtained from tissue lysate of ear region where IMQ and doses were applied.

[11] = biological target: PDE4C (Homo sapiens, UniProt Q08493); assay: Fluorescence polarization assay PDE4C; type: biochemical; conditions: substrate cAMP
Chain of PDE4C (Q08493 whole entry, species assumed): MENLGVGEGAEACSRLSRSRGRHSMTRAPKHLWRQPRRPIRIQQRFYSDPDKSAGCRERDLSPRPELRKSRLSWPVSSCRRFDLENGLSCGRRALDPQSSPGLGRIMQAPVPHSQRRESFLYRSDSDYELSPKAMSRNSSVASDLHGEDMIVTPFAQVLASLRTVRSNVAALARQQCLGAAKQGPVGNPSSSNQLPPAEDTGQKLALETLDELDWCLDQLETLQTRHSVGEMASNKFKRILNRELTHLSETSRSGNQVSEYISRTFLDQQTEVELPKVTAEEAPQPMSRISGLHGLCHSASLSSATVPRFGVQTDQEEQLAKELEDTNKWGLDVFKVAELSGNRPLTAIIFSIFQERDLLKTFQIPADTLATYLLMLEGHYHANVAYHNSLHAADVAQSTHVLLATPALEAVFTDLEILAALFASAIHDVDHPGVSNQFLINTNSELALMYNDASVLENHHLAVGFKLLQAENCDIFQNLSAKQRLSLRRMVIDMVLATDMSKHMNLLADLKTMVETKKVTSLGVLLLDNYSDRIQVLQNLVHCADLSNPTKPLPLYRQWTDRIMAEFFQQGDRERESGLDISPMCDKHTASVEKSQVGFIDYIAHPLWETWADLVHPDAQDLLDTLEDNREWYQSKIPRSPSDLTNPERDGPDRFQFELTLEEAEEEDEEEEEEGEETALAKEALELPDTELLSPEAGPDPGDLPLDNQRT
Method: as §4

[12] = test system: human PBMCs; assay: Cell viability of human PBMCs, Alamar blue; type: cell-based
Method: Fresh human blood from healthy volunteer was collected in anticoagulant (5 mM) ethylene diamine tetra acetic acid (EDTA) containing tubes. The growth medium used was RPMI-1640 medium (with 3% FBS) and incubated at 37° C. for 60 mins in a 5% CO2 incubator with vehicle used as 1% DMSO. The cell viability was checked at various time points using Alamar blue and fluorescence readings were taken at excitation of 544 nm and emission of 590 nm.

[13] = test system: HaCaT cells; assay: Keratinocyte (HaCaT) proliferation, MTT assay; type: cell-based, human; conditions: Homo sapiens, HaCaT, 72 h; read-out: IC50 of cell proliferation
Method: An experiment to check keratinocyte proliferation inhibitory activity of selected compounds of Formula-I was performed to establish its application in skin disorders related to keratinocyte hyper-proliferation. HaCaT cells, a human immortalized cell line derived from keratinocytes, representing hyper-proliferating keratinocytes was investigated for anti-proliferative potential of the selected compounds by MTT assay.

[14] = biological target: PDE4B (Homo sapiens, UniProt Q07343); assay: Fluorescence polarization assay PDE4B; type: biochemical; conditions: substrate cAMP
Method: as §4

[15] = biological target: PDE7A (Homo sapiens, UniProt Q13946); assay: Fluorescence polarization assay PDE7A; type: biochemical; conditions: substrate cAMP
Chain of PDE7A (Q13946 whole entry, species assumed): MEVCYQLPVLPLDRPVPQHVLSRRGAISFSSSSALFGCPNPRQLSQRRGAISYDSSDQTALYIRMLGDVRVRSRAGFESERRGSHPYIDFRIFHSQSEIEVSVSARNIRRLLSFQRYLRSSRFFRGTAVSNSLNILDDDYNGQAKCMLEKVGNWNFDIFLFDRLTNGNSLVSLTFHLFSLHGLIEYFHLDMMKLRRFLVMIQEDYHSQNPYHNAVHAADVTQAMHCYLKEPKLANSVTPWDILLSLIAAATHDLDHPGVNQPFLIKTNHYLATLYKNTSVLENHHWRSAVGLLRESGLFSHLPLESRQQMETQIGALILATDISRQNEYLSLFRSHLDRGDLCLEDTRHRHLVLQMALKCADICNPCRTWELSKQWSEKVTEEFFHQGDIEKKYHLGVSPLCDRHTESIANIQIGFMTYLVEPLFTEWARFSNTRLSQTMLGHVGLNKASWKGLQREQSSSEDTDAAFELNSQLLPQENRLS
Method: as §4

[16] = biological target: PDE5A (Homo sapiens, UniProt O76074); assay: Fluorescence polarization assay PDE5A; type: biochemical; conditions: substrate cGMP
Method: as §4

[17] = biological target: T2, PDE2 (Human platelets) (Homo sapiens, UniProt O00408); assay: Radiolabeled enzyme assay PDE2; type: biochemical; conditions: read-out: % inhibition at 30 μM, 1.01 μM [3H]cAMP+cAMP
T2 construct: PDE2 (Human platelets); from tissue; host or cells: human platelets
T2 sequence (O00408 whole entry): as the sequence (O00408 whole entry, species assumed) above
Method: as §5

With O=C(Nc1ccc([N+](=O)[O-])cc1Cl)c1cc(Cl)ccc1O [Niclosamide] the “TNF-α Conc.” value ([1]; 0.05 μM) was 2.5 ± 0.1 pg/mL, the “TNF-α Conc.” value ([1]; 0.1 μM) was 2.8 ± 0.1 pg/mL and the “TNF-α Conc.” value ([1]; 0.25 μM) was 2.5 ± 0.1 pg/mL. For the same compound, the IC50 [2] was 100 µM, the IC50 [3] was 19 µM and the “IL-6 Conc.” value ([4]; 0.05 μM) was 103 ± 4 pg/mL. The “IL-6 Conc.” value ([4]; 0.1 μM) was 76 ± 4 pg/mL, the “IL-6 release in HaCaT cells (in words)” value ([4]; 0.25 μM) was “Reduction in IL-6 release” and the “IL-6 Conc.” value ([4]; 0.25 μM) was 54 ± 11 pg/mL. For the same compound, the IC50 [5] was 88.7 µM, the inhibition at 30 µM [6] was 49% and the “% Viability (±S.E.M.)” value ([7]; 0.1 μM, 24 hrs) was 111 ± 9%. For the same compound, the “% Viability (±S.E.M.)” value ([7]; 0.1 μM, 48 hrs) was 82 ± 3%, the “% Viability (±S.E.M.)” value ([7]; 0.1 μM, 72 hrs) was 98 ± 6% and the “% Viability (±S.E.M.)” value ([7]; 1 μM, 24 hrs) was 62 ± 4%. The “% Viability (±S.E.M.)” value ([7]; 1 μM, 48 hrs) was 46 ± 0%, the “% Viability (±S.E.M.)” value ([7]; 1 μM, 72 hrs) was 59 ± 11% and the “% Viability (±S.E.M.)” value ([7]; 5 μM, 24 hrs) was 48 ± 1%. The “% Viability (±S.E.M.)” value ([7]; 5 μM, 48 hrs) was 36 ± 2%, the “% Viability (±S.E.M.)” value ([7]; 5 μM, 72 hrs) was 45 ± 8% and the “% Viability (±S.E.M.)” value ([7]; 10 μM, 48 hrs) was 29 ± 1%. For the same compound, the “% Viability (±S.E.M.)” value ([7]; 10 μM, 72 hrs) was 33 ± 2%, the “% Viability (±S.E.M.)” value ([7]; 50 μM, 24 hrs) was 28 ± 1% and the “% Viability (±S.E.M.)” value ([7]; 50 μM, 48 hrs) was 16 ± 0%. For the same compound, the “% Viability (±S.E.M.)” value ([7]; 50 μM, 72 hrs) was 23 ± 7%, the IC50 [8] was 11.6 µM and the IC50 [9] was 59.8 µM. The “% inhibition of Ear inflamn.” value ([10]; 1% topical) was 27.1%, the “Histopathology Scores Epidermal Thickness” value ([10]; 1% topical) was 6.8 ± 0.2 and the “Histopathology Scores Hyperkeratosis” value ([10]; 1% topical) was 0.8 ± 0.2. For the same compound, the “Histopathology Scores Rete Peg Prolifern.” value ([10]; 1% topical) was 1.8 ± 0.2, the PASI score ([10]; 1% topical) was 15.8 ± 3.0 and the “Spleen weight” value ([10]; 1% topical, Day 9) was 265.2 ± 49.2 mg. For the same compound, the “IL23 Levels” value ([10]; 1% topical) was 119.9 ± 7.8 pg/mL, the “% inhibition of Ear inflamn.” value ([10]; 2% topical) was 30.4% and the “Histopathology Scores Epidermal Thickness” value ([10]; 2% topical) was 5.6 ± 0.8. The “Histopathology Scores Hyperkeratosis” value ([10]; 2% topical) was 1.4 ± 0.2, the “Histopathology Scores Rete Peg Prolifern.” value ([10]; 2% topical) was 1.4 ± 0.2 and the PASI score ([10]; 2% topical) was 17.2 ± 1.7. The “Spleen weight” value ([10]; 2% topical, Day 9) was 214.4 ± 15.1 mg, the “IL23 Levels” value ([10]; 2% topical) was 96.6 ± 10.9 pg/mL and the “reduction in the PASI score” value ([10]; 3% concentration) was “up to 50%”. For the same compound, the “% inhibition of Ear inflamn.” value ([10]; 3% topical) was 42.7%, the “Histopathology Scores Epidermal Thickness” value ([10]; 3% topical) was 5.2 ± 0.2 and the “Histopathology Scores Hyperkeratosis” value ([10]; 3% topical) was 1.0 ± 0.0^$. The “Histopathology Scores Rete Peg Prolifern.” value ([10]; 3% topical) was 0.5 ± 0.2, the PASI score ([10]; 3% topical) was 10.7 ± 4.1 and the “Spleen weight” value ([10]; 3% topical, Day 9) was 229.7 ± 18.7 mg. For the same compound, the “IL23 Levels” value ([10]; 3% topical) was 83.6 ± 9.8 pg/mL, the “Spleen weight vs disease control (in words)” value ([10]; Niclosamide 2%, Nitazoxanide 3% and 5%, Clobetasol 0.05%, Day 9) was “marginal reduction in spleen weight” and the “IL-23 level in ear tissue homogenates (in words)” value ([10]; different doses) was “reduction of IL-23 level”. For the same compound, the “Hyperkeratosis (in words)” value ([10]; ear lobe histopathology) was “significant reduction in Hyperkeratosis”, the IC50 [11] was 20.2 µM and the “% Viability (±S.E.M.)” value ([12]; 0.01 μM, 24 hrs) was 134 ± 7%. The “% Viability (±S.E.M.)” value ([12]; 0.01 μM, 48 hrs) was 107 ± 1%, the “% Viability (±S.E.M.)” value ([12]; 0.01 μM, 72 hrs) was 107 ± 6% and the “% Viability (±S.E.M.)” value ([12]; 1 μM, 24 hrs) was 94 ± 4%. The “% Viability (±S.E.M.)” value ([12]; 1 μM, 48 hrs) was 63 ± 0%, the “% Viability (±S.E.M.)” value ([12]; 1 μM, 72 hrs) was 60 ± 1% and the “% Viability (±S.E.M.)” value ([12]; 100 μM, 24 hrs) was 27 ± 5%. The “% Viability (±S.E.M.)” value ([12]; 100 μM, 48 hrs) was 2 ± 1%, the “% Viability (±S.E.M.)” value ([12]; 100 μM, 72 hrs) was −2 ± 0% and the IC50 [13] was 3.25 µM. It also gave an IC50 [14] of 69.1 µM, an IC50 [15] of 19.1 µM and an IC50 [16] of 16.7 µM. For the same compound, the inhibition at 30 µM [17] was 16%.
